ChEMBL document CHEMBL4411307, “N,N'-diaryl-bishydrazones in a biphenyl platform: Broad spectrum antifungal agents” (Eur J Med Chem, 2019)
Converted amounts (≈) assume the structure as drawn. The source made the active and inactive calls. The rule behind the calls is not given here.

Columns and labels:
[1] = Selectivity index, ratio of CC50 for human A549 cells to MIC for fluconazole/ITC-resistant Candida albicans ATCC MYA-1003; assay type: toxicity; conditions: read-out: Selectivity Index
BEAS-2B = test: Cytotoxicity against human BEAS2B cells after 24 hrs by resazurin based assay; assay type: cell-based
[2] = Hemolytic activity in mouse RBC at 31.3 ug/ml after 1 hr relative to control; assay type: ADME, cell-based, Erythrocyte; conditions: red blood cells (erythrocytes), read-out: Activity
[3] = Selectivity index, ratio of CC50 for human A549 cells to MIC for Aspergillus terreus ATCC MYA-3633; assay type: toxicity; conditions: read-out: Selectivity Index
Pichia kudriavzevii = test: Antifungal activity against Candida krusei ATCC 6258 measured after 48 hrs by CLSI M27-A3 protocol based method; assay type: functional; conditions: ATCC 6258, 48 h
Aspergillus nidulans = test: Antifungal activity against Aspergillus nidulans ATCC 38163 measured after 48 hrs by CLSI M38-A2 protocol based method; assay type: functional; conditions: ATCC 38163, 48 h
[4] = Selectivity index, ratio of CC50 for human A549 cells to MIC for fluconazole/ITC-resistant Candida albicans ATCC 10231; assay type: toxicity; conditions: read-out: Selectivity Index
[5] = Selectivity index, ratio of CC50 for human A549 cells to MIC for Aspergillus nidulans ATCC 38163; assay type: toxicity; conditions: read-out: Selectivity Index
Candida albicans [6] = test: Antifungal activity against fluconazole/ITC-susceptible Candida albicans ATCC MYA-2876 measured after 48 hrs by CLSI M27-A3 protocol based method; assay type: functional; conditions: ATCC MYA-2876, 48 h
Candida albicans [7] = test: Antifungal activity against fluconazole/ITC-resistant Candida albicans ATCC MYA-1237 measured after 48 hrs by CLSI M27-A3 protocol based method; assay type: functional; conditions: ATCC MYA-1237, 48 h
[8] = Hemolytic activity in mouse RBC at 62.5 ug/ml after 1 hr relative to control; assay type: ADME, cell-based, Erythrocyte; conditions: red blood cells (erythrocytes), read-out: Activity
A549 = test: Cytotoxicity against human A549 cells after 24 hrs by resazurin based assay; assay type: cell-based; conditions: a549, 24 h
[9] = Selectivity index, ratio of CC50 for human A549 cells to MIC for Candida parapsilosis ATCC 22019; assay type: toxicity; conditions: read-out: Selectivity Index
Candida albicans [10] = test: Antifungal activity against fluconazole/ITC-resistant Candida albicans ATCC 64124 measured after 48 hrs by CLSI M27-A3 protocol based method; assay type: functional; conditions: ATCC 64124, 48 h
Candida albicans [11] = test: Antifungal activity against fluconazole/ITC-resistant Candida albicans ATCC 10231 measured after 48 hrs by CLSI M27-A3 protocol based method; assay type: functional; conditions: ATCC 10231, 48 h
Nakaseomyces glabratus = test: Antifungal activity against Candida glabrata ATCC 2001 measured after 48 hrs by CLSI M27-A3 protocol based method; assay type: functional; conditions: CBS 138, 48 h
[12] = Selectivity index, ratio of CC50 for human A549 cells to MIC for Candida glabrata ATCC 2001; assay type: toxicity; conditions: read-out: Selectivity Index
Enterococcus = test: Antibacterial activity against vancomycin-resistant Enterococcus; assay type: functional, organism-based
[13] = Selectivity index, ratio of CC50 for human A549 cells to MIC for Candida krusei ATCC 6258; assay type: toxicity; conditions: read-out: Selectivity Index
Candida albicans [14] = test: Antifungal activity against fluconazole/ITC-resistant Candida albicans ATCC 90819 measured after 48 hrs by CLSI M27-A3 protocol based method; assay type: functional; conditions: ATCC 90819, 48 h
[15] = Hemolytic activity in mouse RBC at 3.9 ug/ml after 1 hr relative to control; assay type: ADME, cell-based, Erythrocyte; conditions: red blood cells (erythrocytes), read-out: Activity
Listeria monocytogenes = test: Antibacterial activity against Listeria monocytogenes; assay type: functional, organism-based
[16] = Selectivity index, ratio of CC50 for human A549 cells to MIC for fluconazole/ITC-susceptible Candida albicans ATCC MYA-2876; assay type: toxicity; conditions: read-out: Selectivity Index
[17] = Hemolytic activity in mouse RBC at 7.8 ug/ml after 1 hr relative to control; assay type: ADME, cell-based, Erythrocyte; conditions: red blood cells (erythrocytes), read-out: Activity
Staphylococcus aureus = test: Antibacterial activity against methicillin-resistant Staphylococcus aureus; assay type: functional, organism-based
[18] = Hemolytic activity in mouse RBC at […] after 1 hr relative to control; assay type: ADME, cell-based, Erythrocyte; conditions: red blood cells (erythrocytes), read-out: Activity; also: tested at 0.48 µg/mL
Aspergillus terreus = test: Antifungal activity against Aspergillus terreus ATCC MYA-3633 measured after 48 hrs by CLSI M38-A2 protocol based method; assay type: functional; conditions: ATCC MYA-3633, 48 h
[19] = Selectivity index, ratio of CC50 for human A549 cells to MIC for fluconazole/ITC-resistant Candida albicans ATCC MYA-1237; assay type: toxicity; conditions: read-out: Selectivity Index
[20] = Hemolytic activity in mouse RBC at […] ug/ml after 1 hr relative to control; assay type: ADME, cell-based, Erythrocyte; conditions: red blood cells (erythrocytes), read-out: Activity
Aspergillus flavus = test: Antifungal activity against Aspergillus flavus ATCC MYA-3631 measured after 48 hrs by CLSI M38-A2 protocol based method; assay type: functional; conditions: ATCC MYA-3631, 48 h
[21] = Hemolytic activity in mouse RBC at 1.95 ug/ml after 1 hr relative to control; assay type: ADME, cell-based, Erythrocyte; conditions: red blood cells (erythrocytes), read-out: Activity
[22] = Selectivity index, ratio of CC50 for human A549 cells to MIC for fluconazole/ITC-susceptible Candida albicans ATCC MYA-2310; assay type: toxicity; conditions: read-out: Selectivity Index
Candida albicans [23] = test: Antifungal activity against fluconazole/ITC-resistant Candida albicans ATCC MYA-1003 measured after 48 hrs by CLSI M27-A3 protocol based method; assay type: functional; conditions: ATCC MYA-1003, 48 h
Candida parapsilosis = test: Antifungal activity against Candida parapsilosis ATCC 22019 measured after 48 hrs by CLSI M27-A3 protocol based method; assay type: functional; conditions: Lodderomyces parapsilosis, ATCC 22019, 48 h
[24] = Selectivity index, ratio of CC50 for human A549 cells to MIC for fluconazole/ITC-resistant Candida albicans ATCC 90819; assay type: toxicity; conditions: read-out: Selectivity Index
[25] = Selectivity index, ratio of CC50 for human A549 cells to MIC for fluconazole/ITC-resistant Candida albicans ATCC 64124; assay type: toxicity; conditions: read-out: Selectivity Index
Candida albicans [26] = test: Antifungal activity against fluconazole/ITC-susceptible Candida albicans ATCC MYA-2310 measured after 48 hrs by CLSI M27-A3 protocol based method; assay type: functional; conditions: ATCC MYA-2310, 48 h
[27] = Selectivity index, ratio of CC50 for human A549 cells to MIC for Aspergillus flavus ATCC MYA-3631; assay type: toxicity; conditions: read-out: Selectivity Index

## Fc1cccc(N/N=C/c2ccc(-c3cccc(/C=N/Nc4cccc(F)c4)c3)cc2)c1
[1]
  selectivity ratio: 1.5
BEAS-2B
  CC50: 11.8 µg/mL (≈ 27.7 µM)
[2]
  hemolysis at 1 h, 31.3 ug/ml: 32.6%
[3]
  selectivity ratio: 0.4
Pichia kudriavzevii
  MIC: 1.95 µg/mL (≈ 4.57 µM)
Aspergillus nidulans
  MIC: 7.8 µg/mL (≈ 18.3 µM)
[4]
  selectivity ratio: 6
[5]
  selectivity ratio: 1.5
Candida albicans [6]
  MIC: 7.8 µg/mL (≈ 18.3 µM)
Candida albicans [7]
  MIC: 15.6 µg/mL (≈ 36.6 µM)
[8]
  hemolysis at 1 h, 62.5 ug/ml: 39.5%
A549
  CC50: 11.7 µg/mL (≈ 27.4 µM)
[9]
  selectivity ratio: 0.4
Candida albicans [10]
  MIC: > 31.3 µg/mL
Candida albicans [11]
  MIC: 1.95 µg/mL (≈ 4.57 µM)
Nakaseomyces glabratus
  MIC: > 31.3 µg/mL
[12]
  selectivity ratio: 0.4
Enterococcus
  Activity: inactive
[13]
  selectivity ratio: 6
Candida albicans [14]
  MIC: 15.6 µg/mL (≈ 36.6 µM)
[15]
  hemolysis at 1 h, 3.9 ug/ml: 2.5%
Listeria monocytogenes
  Activity: inactive
[16]
  selectivity ratio: 1.5
[17]
  hemolysis at 1 h, 7.8 ug/ml: 7.9%
Staphylococcus aureus
  Activity: inactive
[18]
  hemolysis at 1 h, […]: 0%
Aspergillus terreus
  MIC: > 31.3 µg/mL
[19]
  selectivity ratio: 0.8
[20]; at 15.6 µg/mL
  hemolysis at 1 h, 15.6 ug/ml: 13.9%
[20]
  hemolysis at 1 h, 0.975 ug/ml: 4.6%
Aspergillus flavus
  MIC: 3.9 µg/mL (≈ 9.14 µM)
[21]
  hemolysis at 1 h, 1.95 ug/ml: 0.6%
[22]
  selectivity ratio: 0.4
Candida albicans [23]
  MIC: 7.8 µg/mL (≈ 18.3 µM)
Candida parapsilosis
  MIC: 31.3 µg/mL (≈ 73.4 µM)
[24]
  selectivity ratio: 0.8
[25]
  selectivity ratio: 0.4
Candida albicans [26]
  MIC: > 31.3 µg/mL

## Fc1ccccc1N/N=C/c1ccc(-c2cccc(/C=N/Nc3ccccc3F)c2)cc1
[1]
  selectivity ratio: 2.1
BEAS-2B
  CC50: > 31 µg/mL
[27]
  selectivity ratio: > 4.2
[3]
  selectivity ratio: 0.5
Pichia kudriavzevii
  MIC: 1.95 µg/mL (≈ 4.57 µM)
Aspergillus nidulans
  MIC: 7.8 µg/mL (≈ 18.3 µM)
[4]
  selectivity ratio: 2.1
[5]
  selectivity ratio: 2.1
Candida albicans [6]
  MIC: > 31.3 µg/mL
Candida albicans [7]
  MIC: > 31.3 µg/mL
A549
  CC50: 16.4 µg/mL (≈ 38.5 µM)
[9]
  selectivity ratio: 1.1
Candida albicans [10]
  MIC: 7.8 µg/mL (≈ 18.3 µM)
Candida albicans [11]
  MIC: 7.8 µg/mL (≈ 18.3 µM)
Nakaseomyces glabratus
  MIC: > 31.3 µg/mL
[12]
  selectivity ratio: 0.5
Enterococcus
  Activity: inactive
[13]
  selectivity ratio: 8.4
Candida albicans [14]
  MIC: 15.6 µg/mL (≈ 36.6 µM)
Listeria monocytogenes
  Activity: inactive
[16]
  selectivity ratio: 0.5
Staphylococcus aureus
  Activity: inactive
Aspergillus terreus
  MIC: > 31.3 µg/mL
[19]
  selectivity ratio: 0.5
Aspergillus flavus
  MIC: 3.9 µg/mL (≈ 9.14 µM)
[22]
  selectivity ratio: 0.5
Candida albicans [23]
  MIC: 7.8 µg/mL (≈ 18.3 µM)
Candida parapsilosis
  MIC: 15.6 µg/mL (≈ 36.6 µM)
[24]
  selectivity ratio: 1.1
[25]
  selectivity ratio: 2.1
Candida albicans [26]
  MIC: 31.3 µg/mL (≈ 73.4 µM)
